Results from publication PMC9030827, “In Vitro Effects of Mitochondria-Targeted Antioxidants in a Small-Cell Carcinoma of the Ovary of Hypercalcemic Type and in Type 1 and Type 2 Endometrial Cancer” (Biomedicines, 2022).
Read-outs that look alike come from different tables or passages of the source.

How the values were obtained:
COV434 cells [1] = experiment: Intracellular ROS/RNS assessment, DCFH-DA probe; format: cell-based, human; settings: COV434, 10 μM, 2 h immediately after addition
Method: (§1) The assay for the evaluation of the levels of ROS/RNS was based on the work of Bak, et al.. All cell lines were cultured in black 96-well plates at a density of 5 × 10^4 cells/well and allowed to adhere for 24 h. After adherence, the cells were incubated with 2′,7′-dichlorodihydrofluorescein diacetate (DCFH-DA) (25 μM) for 1 h at 37 °C in the dark. The DCFH-DA probe allows the detection of intracellular ROS, more specifically H2O2, HO^● and ROO^●, and RNS, more specifically, ^●NO and ONOO^− [51]. The cells were then treated with 10 μM of either Mito6_TPP, Mito6_picol., or Mito6_isoq. The stress inducer H2O2 (200 μM) was used as the positive control. The fluorescence provided by the probe was measured immediately and every 5 min for 2 h at 37 °C using a BioTek Synergy HTX Multi-Mode Microplate Fluorimeter equipped with BioTek Gen5 Data Collection and Analysis Software (BioTek Instruments, Winooski, VT, USA) (excitation: 485 nm; emission: 530 nm).

Hec50co cells [2] = experiment: Intracellular ROS/RNS assessment, DCFH-DA probe; format: cell-based, human; settings: 10 μM, 2 h immediately after addition
Method: as §1

Ishikawa cells = experiment: Intracellular ROS/RNS assessment, DCFH-DA probe; format: cell-based, human; settings: 10 μM, 2 h immediately after addition
Method: as §1

COV434 cells [3] = experiment: Neutral red (NR) cell viability assay; format: cell-based; settings: Homo sapiens
Method: Experiments were performed using the following cell lines: Ishikawa, Hec50co, COV434, and HFF-1. The Ishikawa cell line (RRID: CVCL_2529) was established from an endometrial adenocarcinoma. The Hec50co cell line (RRID: CVCL_4Y59) consists of poorly differentiated endometrial tumor cells isolated from a patient with advanced disease. Both the Ishikawa and Hec50co cell lines were kindly provided by Dr. Kim K. Leslie (The University of New Mexico Health Sciences Center, Albuquerque, NM, USA). COV434 (RRID: CVCL_2010) were initially isolated from a patient diagnosed with a granulosa cell tumor but were recently classified as cells from a small-cell carcinoma of the ovary, hypercalcemic type.The COV434 cells were purchased from the European Collection of Authenticated Cell Cultures (ECACC) (#07071909). HFF-1 (RRID: CVCL_3285) is an immortalized human foreskin fibroblasts cell line, obtained from the American Type Culture Collection (ATCC), which was used as control, as they are non-tumorous cells. The Ishikawa and Hec50co cells were maintained in Dulbecco’s Modified Eagle Medium/F12 (DMEM/F12) supplemented with 5% Foetal Bovine Serum (FBS). COV434 cells were maintained in DMEM/F12 supplemented with 10% FBS. HFF-1 were maintained in Roswell Park Memorial Institute 1640 (RPMI 1640) supplemented with 10% FBS. All mediums were supplemented with 1% AB-AM and all cells were kept at 37 °C with 5% CO2. The treatment with the compounds was done in the respective cell medium supplemented with 2% FBS and 24 h after platting the cells in the culture medium with 5% FBS to allow their adherence.
(§2) The Ishikawa, Hec50co, COV434, and HFF-1 cell lines were plated at a density of 5 × 10^4 cells/well in transparent 96-well plates. After 24 h, the cells were treated with Mito6_TPP, Mito6_picol., or Mito6_isoq. (0.01–100 μM) and incubated at 37 °C with 5% CO2 for 24, 48, or 72 h. […] The conditions of the methylthiazolyldiphenyl-tetrazolium bromide (MTT) assay were adapted from the work of Banerjee et al.. Briefly, MTT was added to a final concentration of 0.5 mg/mL, and the cells were incubated for 3 h at 37 °C with 5% CO2. After the 3 h, purple MTT formazan crystals were dissolved by agitation for 15 min in a solution of DMSO/isopropanol (ratio 3:1) and quantified spectrophotometrically at 540 nm. The neutral red (NR) assay conditions were based on the work developed by Repetto et al.. Briefly, after the incubation time, cells were incubated with NR at 40 μg/mL in an FBS-free cell medium for 3 h. The cells were then incubated with a solution of 50% ethanol (96% v/v), 49% deionized water, and 1% glacial acetic acid, with shaking for 15 min. The NR extracted from the cells was measured at 540 nm. The LDH cytotoxicity assay was not performed on the HFF-1 cells due to the lack of evidence of cell death at the concentrations tested. After the incubation time, this assay was performed using a Thermo Scientific Pierce LDH Cytotoxicity Assay Kit according to the manufacturer’s instructions. For all assays, the absorbance was read using a BioTek Synergy HTX Multi-Mode Microplate Reader equipped with BioTek Gen5 Data Collection and Analysis Software (BioTek Instruments, Winooski, VT, USA).
Data were evaluated using the one- or two-way analysis of variance (ANOVA) test followed by Bonferroni’s test for multiple comparisons. The data presented was expressed as mean ± SEM (Standard Error of the Mean) of a minimum of three and a maximum of seven independent experiments performed in triplicate. Values of p < 0.05 were considered statistically significant. Half of the maximal effective concentration (EC50) values were estimated by interpolation of dose-response curves and reported as a mean with a 95% confidence interval (CI 95%). All statistical analysis was performed using GraphPad Prism Software 8.0 (GraphPad Software, Inc., San Diego, CA, USA). […]

Hec50co cells [4] = experiment: Cell morphology by Giemsa staining; format: cell-based, human; settings: 72 h, 5 μM Mito6_TPP, 20 μM Mito6_picol., 10 μM Mito6_isoq.
Method: Morphological changes in all cell lines were evaluated by phase-contrast microscopy (Eclipse TS100 Inverted Microscope, Nikon, Tokyo, Japan) and Giemsa staining. […] The cells were plated in 24-well plates with coverslips using the densities of 1 × 10^5 cells/well in Ishikawa and Hec50co and 2.5 × 10^5 cells/well in COV434 and HFF-1. After adherence, the cells were treated with Mito6_TPP (5 μM), Mito6_picol. (20 μM), or Mito6_isoq. (10 μM) and incubated at 37 °C with 5% CO2 for 72 h. For Giemsa staining, the cells were fixated with paraformaldehyde 4% in Phosphate Buffered Saline (PBS) for 15 min, stained with Giemsa solution for 30 min, mounted with DPX, and observed through bright field microscopy. For Höechst staining, the cells were incubated with 0.5 μg/mL Höechst 33342 in PBS for 20 min in the dark, mounted in Fluoroshield, and observed under a fluorescence microscope equipped with an excitation filter with maximum transmission at 360/400 nm. In both stainings, the cells were observed using the microscope Eclipse CI (Nikon, Japan) and the images were processed with Nikon NIS Elements Image Software (Nikon, Japan).

[5] = tested on: Ishikawa, Hec50co, COV434, and HFF-1 cells; experiment: Cell viability (MTT and NR assays), statements over all cell lines; format: cell-based, human
Method: as §2, with “The LDH cytotoxicity assay was not performed on the HFF-1 cells due to the lack of evidence of cell death at the concentrations tested. After the incubation time, this assay was performed using a Thermo Scientific Pierce LDH Cytotoxicity Assay Kit according to the manufacturer’s instructions.” left out

[6] = COV434, 24 hours of incubation, read-out: EC50 (decrease of viability), NR assay
[7] = COV434, 48 h of incubation, read-out: EC50 (decrease of viability), NR Assay
[8] = COV434, 72 hours of incubation, read-out: EC50 (decrease of viability), NR assay

Row | SMILES | Intracellular ROS levels vs untreated cells (COV434 cells [1]) | Intracellular ROS levels vs untreated cells (Hec50co cells [2]) | Intracellular ROS levels vs untreated cells (Ishikawa cells) | EC50 (COV434 cells [3]; [6]) [µM] | EC50 (COV434 cells [3]; [7]) [µM] | EC50 (COV434 cells [3]; [8]) [µM] | Cell morphology changes (Giemsa staining) (Hec50co cells [4]) | Lowest concentration inducing a significant decrease in cell viability [5] [µM]
1 | O=C(/C=C/c1ccc(O)c(O)c1)NCCCCCCCCCC[P+](c1ccccc1)(c1ccccc1)c1ccccc1 [Mito6_TPP] | faster and more accentuated decrease in ROS levels | faster and more accentuated decrease in ROS levels | faster and more accentuated decrease in ROS levels | 13.6 | 9.11 | 4.01 | altered cell shapes and indications of chromatin condensation | 1
2 | O=C(/C=C/c1ccc(O)c(O)c1)NCCCCCCCCCC[n+]1ccc2ccccc2c1 [Mito6_isoq.] | – | – | – | 51.6 | 40 | 30.8 | – | –
3 | Cc1cc[n+](CCCCCCCCCCNC(=O)/C=C/c2ccc(O)c(O)c2)cc1 [Mito6_picol.] | no effects | – | – | 87.8 | 62.5 | 34.2 | did not induce any morphological changes | –
